Reference: patent US5260275A, “Hypoglycemics” (Amylin Pharmaceuticals, Inc., priority 1990, dated 1993)
No end group written: not given here.

What was measured:
HIT T-15 cells [1] = assay: Insulin release from HIT T-15 cells; format: cell-based, hamster
Experimental: (§1) HIT T-15 cells (HIT cells; American Type Tissue Collection, Rockville, MD; R. F. Santerre, et al. (1981) Proc. Nat. Acad. Sci. USA 78, 4339-4343.) were subcultured weekly in Ham's F-12 medium (Irvine Scientific, Santa Ana, Calif.) containing 10% horse serum (Gemini Bioproducts, Calabasas, Calif.), 2.5% fetal bovine serum (FBS; Gemini), 2 mM L-glutamine, and 10.0 mM glucose. Cells were maintained at 37° C. and 5% CO2 / 95% humidified air and medium was replaced every 2 to 3 days. All experiments were performed with cells from passages 66 to 71.
(§2) Amylin and insulin secretion were measured using reagents of analytical grade unless otherwise indicated. The secretion medium was a Krebs-Ringer buffer (KRB) containing 119 mM NaCl, 4.74 mM KCl, 2,54 mM CaCl2, 1.19 mM MgSO4, 1.19 mM KH2 PO4, 25 mM NaHCO3, 10 mM HEPES and 0.1% protease-free bovine serum albumin (Cohn fraction V; Sigma Chemical Co., St. Louis Mo.) at pH 7.4. Glibenclamide (Sigma) was initially dissolved in ethanol (50 mg/ml) then diluted to working concentrations in KRB. […] Tolbutamide (Sigma) was initially dissolved in dimethylsulfoxide (50 mg/ml). […] Metformin (Sigma) was diluted in KRB.
(§3) Five days before each secretion study cells were subcultured at 0.26×10^6 cells/0.8 ml medium/well in 24-well tissue culture plates (Corning Glass Works, Corning N.Y.). Medium was replaced on day 3. On day 5 cells were washed twice with 1.0 ml KRB then incubated in 1.0 ml KRB (30 minutes, 37° C.) in equilibrium with air. Cells were washed twice more prior to addition of 0.5 ml KRB containing the indicated concentrations of glucose, metformin, tolbutamide and glibenclamide. After a 60 minute incubation with test substance or substances, supernatants were centrifuged (5 minutes, 500×g, 5° C.; GPKR centrifuge, Beckman Instruments, Inc., Palo Alto, Calif.) to remove cell debris, then stored in polypropylene micro test tubes (Brinkman Instrument Co., Westbury, N.Y.) at -20° C. until analyzed by radioimmunoassay. Supernatants were analyzed for insulin and amylin content within one week of collection. Three wells per plate were randomly selected for cell quantitation. Cells were incubated with 75 μg trypsin and 30 μg EDTA in 150 μl normal saline (8 minutes, 37° C.), then counted on a Coulter Counter (Model Zf, Coulter Electronics, Hialeah, Fla.).
(§4) Immunoreactive insulin content in supernatants was measured using a commercial radioimmunoassay (IM.78; Amersham, Arlington Heights, Ill.). […] The radioimmunoassay for immunoreactive amylin was as follows. Assay diluent was phosphate-buffered saline (PBS; 137 mM NaCl, 2.68 mM KCl, 1.47 mM KH2 PO4, 6.65 mM Na2 HPO4) containing 0.1% Triton-X 100 (v/v), 0.01% NaN3 (w/v), and 0.1% gelatin (v/v; teleostean, 45% aqueous solution, Sigma) at pH 7.4. All incubations were performed at 4° C. ^125 I-[Tyr 37]-human synthetic amylin tracer was iodinated by the chloramine-T method and purified on a C18 Sep-Pak (Waters Associates, Milford, Mass.). Specific activity was approximately 500 μCi/μg.
Data in FIGS. 3 and 4 are shown as the mean±S.D. of 4 replicate samples. An unpaired Student's t-test was used to compare secretion in the absence and presence of hypoglycemic agent (Statview 512+ program; Brain Power, Inc., Calabasas, Calif.).
as §1, with “Md.)” for “MD; R. F. Santerre, et al. (1981) Proc. Nat. Acad. Sci. USA 78, 4339-4343.)”, “L-glutamine, 10^5 IU penicillin G/1, 100 mg streptomycin/1” for “L-glutamine,”, “C02/” for “CO2 /”, “62” for “66”

HIT T-15 cells [2] = assay: Amylin release from HIT T-15 cells; format: cell-based, hamster; settings: for Effect on basal and glucose-stimulated amylin secretion (in words): same concentrations that stimulate insulin secretion (tolbutamide 100 μM; glibenclamide 0.1 and 1.0 μM), 0 and 10 mM glucose
Experimental: as §1, §2, §3, §4
Standards and unknowns were run in triplicate or duplicate respectively. After an 18 hour incubation, 100 μl of tracer containing 20,000 dpm was added and samples were incubated an additional 18 hours. To ensure complete immunoprecipitation of amylin:antibody complexes, 100 μl of rabbit gamma globulin (0.35 mg/ml, Scantibodies Laboratory, Santee, Calif.) and 100 μl of goat anti-rabbit gamma globulin (0.50 mg/ml, purified grade; Scantibodies) were added. After a 15 minute incubation, 1.0 ml 2% polyethylene glycol (w/v. MW 8,000; Sigma) in assay buffer was added and samples were centrifuged (30 minutes, 1500×g, 5° C.). Samples were decanted and pellets were counted on a gamma counter (model 1277; LKB Wallac, Turku, Finland).
Data in FIGS. 3 and 4 are shown as the mean±S.D. of 4 replicate samples.

[3] = tested on: isolated rat islets of Langerhans; assay: Glucose-stimulated insulin secretion from isolated rat islets of Langerhans; format: cell-based; settings: glucose 10 mmol/L
Experimental: The following experiments illustrate the fact that subpeptides of amylin can act to reduce the amount of insulin produced by isolated islets of Langerhans in response to a standard glucose challenge. Similar results have been obtained using whole amylin. All experiments were performed by known methods used in experimental practice. See, e.g., Lacey P. E., and Kostianovsky M., Method for the Isolation of Intact Islets of Lanaerhans from the Rat Pancreas. Diabetes 1967; 16:35-39.
Briefly, rats were killed, and islets of Langerhans were isolated from their pancreases. Experiments were performed either with freshly isolated islets or after overnight incubation of islets (23 h) in standard culture medium and conditions at 37° C. Synthetic amylin peptide 27-37 or synthetic calcitonin gene related peptide (CGRP) was dissolved in a 1.0 mmol/L citric acid/sodium citrate buffer, pH 3.0, and the concentration of the amylin 27-37 was verified by quantitative amino acid analysis. See, e.g., Cooper G. J. S. et al., Proc Natl Acad Sci USA 1987; 84:8628-8632. […] Stimulation of islets was carried out at the standard stimulatory glucose concentration of 10 mmol/L.
Production of insulin is expressed as μU/islet/h. All experiments were performed with five replicates per point. The integrity of the islet response was assessed by comparing the responses after stimulation of different aliquots of islets by two and ten mmol/L glucose, respectively, and the strength of the inhibitory response was judged against that induced by 1 μg/ml (650 nmol/L) somatostatin. Somatostatin is a 14 amino acid peptide which is a known, potent inhibitor of the insulin secretory response of islet B-cells to glucose. Arimura A. Biomed res1981; 2:233-257. […] Petterson M., Ahren B., Bottcher G., Sundler F., Endocrinology 1986; 119:865-869.
The results are shown in TABLE 5 below and all results are expressed as standard error of the mean (s.e.m.). The significance of differences between the means of groups is assessed by the t-test. The result of stimulation by 10 mmol/L glucose is compared with the results of stimulation at 2 mmol/L glucose. In all other experimental conditions, the significance of the inhibitory effect is measured against the effect of 10 mmol/L glucose alone.

[4] = Intravenous amylin bolus in normal rats; format: in vivo, rat
Experimental: We have also shown that amylin acutely produces diabetes (fasting hyperglycemia greater than 140 mg/dL) when administered intravenously. Eight normal rats were injected with a 100 μg bolus of amylin (rat amylin, Bachem, Torrance, Calif.). An intravenous amylin bolus produced a profound hyperglycemia to diabetic levels within 15-30 minutes (usually around 200 mg/dL). This hyperglycemia persists for several hours. […] There is an increase in respiratory quotient (RQ) after amylin only when somatostatin is absent and insulin is allowed to increase in response to hyperglycemia. During somatostatin infusion (no endogenous insulin release), there is no change in RQ, indicating no change from lipid to carbohydrate fuel usage in response to amylin in the fasted animal.

[5] = tested on: amylin inhibition of insulin-stimulated muscle glycogen synthesis; assay: Antagonist assay in isolated rat soleus muscle (radiolabelled glucose into glycogen, Example 6); format: cell-based; settings: 1000 μU/mL insulin
Experimental: An antagonist assay was performed in vitro using the isolated soleus muscle from rats. It measured the rate of incorporation of radiolabelled glucose into muscle glycogen as follows: […] There were therefore 9 treatment groups (conditions 1,2,3 and six subgroups of condition 4). The right and left soleus muscles of 4-hour fasted rats were removed immediately after decapitation of the animals, divided in half and temporarily placed in physiological saline. Muscles were assigned to different treatment groups so that the 4 muscle pieces from each animal were evenly distributed among the 9 flasks representing the different assay conditions. […] Pharmacologically active agents were added to the 10mL of medium to result in the above stated concentrations and mixtures. […] Frozen muscle specimens were digested in 1 mL 60% potassium hydroxide at 70° C. for 45 minutes. […] The supernatant was aspirated and the glycogen washed with ethanol, aspirated and dried under vacuum. The remaining glycogen was redissolved in water and scintillation fluid and counted for ^14 C. From a knowledge of the specific activity of ^14 C-glucose in the 5.5 mM glucose of the incubation medium, and the total ^14 C counts remaining in the glycogen extracted from each muscle, the net rate of glycogen synthesis over the final 60 minute incubation period was determined. This was normalized per mass of muscle and expressed as μmoles of glucosyl units incorporated into glycogen per hour per gram of muscle. The antagonist dose/response curve was fitted to a 4-parameter logistic model using a least-squares iterative routine (ALLFIT, v2.7, NIH, MD) to derive the EC50 for disinhibition.

[6] = 100 μg intravenous bolus, normal rats

Compound: COc1ccc(Cl)cc1C(=O)NCCc1ccc(S(=O)(=O)NC(=O)NC2CCCCC2)cc1 [glibenclamide]
- Proportional increase of basal insulin release (HIT T-15 cells [1]; 0 glucose): more than two-fold
- Effect on basal and glucose-stimulated secretion of insulin (in words) (HIT T-15 cells [1]; 0.1 and 1.0 μM, 0 and 10 mM glucose, 60 min): significantly enhanced
- Proportional increase in basal amylin secretion (HIT T-15 cells [2]; basal conditions (0 glucose)): approximately two-fold
- Effect on basal and glucose-stimulated amylin secretion (in words) (HIT T-15 cells [2]): significantly increase

Compound: CGRP 27-37: subpeptide 27-37 of calcitonin gene related peptide (FVPTNVGSKAF; ends and bridges not checked; UniProt P06881 109-119, looked up, fragment)
- Insulin production ([3]; substance 10 nmol/L): 36 μU/islet/hr
- Relative insulin secretion inhibition (percentage by which insulin production is reduced from control) ([3]; substance 10 nmol/L): 55%
- Insulin production ([3]; substance 100 nmol/L): 36 μU/islet/hr
- Relative insulin secretion inhibition (percentage by which insulin production is reduced from control) ([3]; substance 100 nmol/L): 55%
- Insulin production ([3]; substance 1000 nmol/L): 46 μU/islet/hr
- Relative insulin secretion inhibition (percentage by which insulin production is reduced from control) ([3]; substance 1000 nmol/L): 42%

Compound: rat amylin: rat amylin, Bachem, Torrance, Calif. (KCNTATCATQRLANFLVRSSNNLGPVLPPTNVGSNTY; ends and bridges not checked; cysteine pairing not given here; UniProt P12969 38-74, looked up)
- Duration of hyperglycemia [4, 6]: several hours
- Hepatic (endogenous) glucose output [4, 6]: increase
- Hyperglycemia level after bolus [4, 6]: around 200 mg/dL
- Peripheral glucose disposal [4, 6]: increased impediment
- Plasma lactate [4, 6]: transient increase
- Time to hyperglycemia at diabetic levels [4, 6]: 15 to 30 min
- Respiratory quotient (RQ) ([4]; during somatostatin infusion (no endogenous insulin release)): no change
- Respiratory quotient (RQ) ([4]; somatostatin absent, insulin allowed to increase): increase
- Decrease of insulin-stimulated rate of glycogen synthesis ([5]; 20 nM amylin): approximately 83%

Compound: CN(C)C(=N)N=C(N)N [metformin]
- Effect on insulin secretion (in words) (HIT T-15 cells [1]; 10 and 100 μM, 0 and 10 mM glucose, 60 min): no measurable effect
- Effect on rates of amylin secretion (in words) (HIT T-15 cells [2]; islet β-cells (HIT), concentration range examined): does not influence

Compound: CGRP8-37: 8-37 human CGRP (Bachem), amylin antagonist
- Effect on amylin inhibition of insulin-stimulated muscle glycogen synthesis (in words) ([5]; 20 nM amylin): partly reverses
- Increment in the rate of glycogen synthesis, maximum reached ([5]; 20 nM amylin, antagonist 1 nM-10 μM): about 115 % of basal
- EC50 ([5]; 20 nM amylin, read-out: EC50 for disinhibition (half maximal concentration)): 1.2 nM

Compound: insulin: Humulin-R, 100U/mL, recombinant human insulin (Eli Lilly)
- Increase in rate of glycogen synthesis ([5]; zero amylin, zero antagonist): 3.7 fold

Compound: CCCCNC(=O)NS(=O)(=O)c1ccc(C)cc1 [tolbutamide]
- Effect on basal and glucose-stimulated secretion of insulin (in words) (HIT T-15 cells [1]; 100 μM, 0 and 10 mM glucose, 60 min): significantly enhanced
- Effect on basal and glucose-stimulated amylin secretion (in words) (HIT T-15 cells [2]): significantly increase
